The values that follow come from ChEMBL document CHEMBL3124876, “A perylene derivative regulates HIF-1α and Stat3 signaling pathways” (Bioorg Med Chem, 2014).

Experiment [1] concerns the target Hypoxia-inducible factor 1-alpha (Homo sapiens) (UniProt Q16665). Briefly: Inhibition of HIF-1alpha in human MDA-MB-231 cells at 10 uM after 18 hrs by Western blotting analysis in hypoxia condition. Type of experiment: cell-based. A general note: Immunoblotting shows a protein as a band on a membrane.
Experiment [2] deals with Signal transducer and activator of transcription 3 (Homo sapiens) (UniProt P40763). Briefly: Inhibition of Stat3 in human MDA-MB-231 cells assessed as inhibition of Stat3 phosphorylation at 10 uM after 18 hrs by Western blotting analysis. Type of experiment: cell-based.
Experiment [3] deals with MDA-MB-231. Briefly: Anticancer activity in human MDA-MB-231 cells assessed as reduction of total Stat3 level at 10 uM after 18 hrs by Western blotting analysis. Type of experiment: functional, cell-based.
The target in experiment [4] is Hypoxia-inducible factor 1-alpha (Homo sapiens) (UniProt Q16665). Briefly: Inhibition of HIF-1 alpha in human MDA-MB-231 cells at 1 to 20 uM by Western blotting analysis. Type of experiment: cell-based.
In experiment [5] the target is Signal transducer and activator of transcription 3 (Homo sapiens) (UniProt P40763). Briefly: Inhibition of Stat3 phosphorylation in human MDA-MB-231 cells at 1 to 20 uM by Western blotting analysis. Type of experiment: cell-based.
The test system of the next experiment is MCF7. Briefly: Induction of apoptosis in human MCF7 cells up to 20 uM by MTT assay. Type of experiment: functional, cell-based. Background: Tetrazolium assays rely on reduction of a dye to a coloured formazan, in cell work by metabolically active cells.
For experiment [6], the target named is Signal transducer and activator of transcription 3 (Homo sapiens) (UniProt P40763). Briefly: Inhibition of Stat3 phosphorylation in human MDA-MB-231 cells assessed as inhibition of c-Myc expression at 1 to 20 uM by Western blotting analysis. Type of experiment: cell-based.
Another experiment is filed under the species Homo sapiens. Briefly: Inhibition of telomerase (unknown origin).
The target in experiment [7] is Signal transducer and activator of transcription 3 (Homo sapiens) (UniProt P40763). Briefly: Inhibition of IL6-induced STAT3 phosphorylation in human PANC1 cells after 3 hrs by Western blotting analysis in hypoxia condition. Type of experiment: cell-based. The note with it: PANC-1.
The test system of experiment [8] is MDA-MB-231. Briefly: Antitumor activity against human MDA-MB-231 cells xenografted in Balb nu/nu mouse assessed as reduction in tumor growth at 10 mg/kg, ip administered every other day for 10 days. Type of experiment: functional, organism-based. Further details: dose 10 mg/kg.
The target in experiment [9] is Hypoxia-inducible factor 1-alpha (Homo sapiens) (UniProt Q16665). Briefly: Inhibition of HIF-1 alpha in human PANC1 cells after 3 hrs by Western blotting analysis in hypoxia condition. Type of experiment: cell-based. The settings on record: PANC-1.

Active and inactive are the calls of the source. The calls are words filed in the database; no cut-off is given here.

Hypoxia-inducible factor 1-alpha (Homo sapiens), sequence (Q16665 whole entry, looked up): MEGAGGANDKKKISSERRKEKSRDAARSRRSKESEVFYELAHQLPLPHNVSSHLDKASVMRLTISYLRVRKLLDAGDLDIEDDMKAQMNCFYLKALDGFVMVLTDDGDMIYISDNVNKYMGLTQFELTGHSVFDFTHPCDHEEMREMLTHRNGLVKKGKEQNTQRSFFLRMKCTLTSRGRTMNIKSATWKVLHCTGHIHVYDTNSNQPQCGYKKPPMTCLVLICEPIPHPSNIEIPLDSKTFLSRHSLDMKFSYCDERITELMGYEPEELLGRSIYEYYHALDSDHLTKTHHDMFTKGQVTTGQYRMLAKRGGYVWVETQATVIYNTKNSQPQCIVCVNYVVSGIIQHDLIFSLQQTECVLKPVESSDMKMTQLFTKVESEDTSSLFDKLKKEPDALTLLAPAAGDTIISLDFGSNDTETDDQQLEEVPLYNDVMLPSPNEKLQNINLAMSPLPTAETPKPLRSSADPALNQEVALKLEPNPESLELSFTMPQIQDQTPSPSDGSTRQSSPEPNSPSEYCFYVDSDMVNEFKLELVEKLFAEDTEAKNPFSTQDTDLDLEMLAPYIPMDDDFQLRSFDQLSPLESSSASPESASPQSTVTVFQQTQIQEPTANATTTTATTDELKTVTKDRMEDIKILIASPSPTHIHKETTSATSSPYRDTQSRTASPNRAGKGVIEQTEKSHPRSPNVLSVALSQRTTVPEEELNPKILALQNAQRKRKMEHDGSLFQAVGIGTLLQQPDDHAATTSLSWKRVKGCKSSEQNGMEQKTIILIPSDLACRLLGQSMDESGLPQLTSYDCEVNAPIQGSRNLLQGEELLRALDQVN
Signal transducer and activator of transcription 3 (Homo sapiens), sequence (P40763 whole entry): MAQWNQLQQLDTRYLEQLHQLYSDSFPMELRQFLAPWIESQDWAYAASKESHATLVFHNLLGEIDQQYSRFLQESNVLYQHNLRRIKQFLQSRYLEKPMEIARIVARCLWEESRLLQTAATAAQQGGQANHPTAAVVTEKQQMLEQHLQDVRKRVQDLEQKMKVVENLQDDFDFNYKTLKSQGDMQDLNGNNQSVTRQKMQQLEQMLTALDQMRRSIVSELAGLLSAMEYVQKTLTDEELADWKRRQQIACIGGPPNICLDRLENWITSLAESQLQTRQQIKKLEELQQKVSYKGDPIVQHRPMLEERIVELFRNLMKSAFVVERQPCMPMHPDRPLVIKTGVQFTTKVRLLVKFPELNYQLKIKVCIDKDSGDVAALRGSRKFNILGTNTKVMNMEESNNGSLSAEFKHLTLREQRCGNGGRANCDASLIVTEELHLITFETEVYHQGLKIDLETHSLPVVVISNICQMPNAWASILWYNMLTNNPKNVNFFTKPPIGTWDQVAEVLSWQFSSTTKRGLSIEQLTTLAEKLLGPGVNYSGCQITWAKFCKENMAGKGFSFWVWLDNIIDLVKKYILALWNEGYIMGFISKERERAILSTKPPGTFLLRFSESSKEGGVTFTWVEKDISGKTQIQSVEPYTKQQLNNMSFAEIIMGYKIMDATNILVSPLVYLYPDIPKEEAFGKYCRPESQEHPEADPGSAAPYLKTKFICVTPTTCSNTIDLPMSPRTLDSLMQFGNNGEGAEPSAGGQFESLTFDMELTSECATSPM

Turning to `CN(CCCN)CCCN1C(=O)c2ccc3c4ccc5c6c(ccc(c7ccc(c2c37)C1=O)c64)C(=O)N(CCCN(C)CCCCN)C5=O`, the inhibition result in experiment [1] and in experiment [2] was “inactive” throughout. Also, the outcome with MDA-MB-231 [3] was inactive.
Consider `NCCN1C(=O)c2ccc3c4ccc5c6c(ccc(c7ccc(c2c37)C1=O)c64)C(=O)N(CCN)C5=O`, for which the inhibition result in [4], in experiment [1], in experiment [5], in experiment [2] and in experiment [6] was “inactive” each time. In addition, the result with MCF7 and with MDA-MB-231 [3] was inactive. Besides, the inhibition entry in the experiment listed under Homo sapiens was “Active”.
Turning to `Nc1ccn([C@@H]2O[C@H](COP(=O)(O)O[C@H]3[C@@H](O)[C@H](n4cnc5c(=O)[nH]c(N)nc54)O[C@@H]3COP(=O)(O)O[C@H]3[C@@H](O)[C@H](n4cnc5c(=O)[nH]c(N)nc54)O[C@@H]3COP(=O)(O)O[C@H]3[C@@H](O)[C@H](n4cnc5c(=O)[nH]c(N)nc54)O[C@@H]3COP(=O)(O)O[C@H]3[C@@H](O)[C@H](n4ccc(N)nc4=O)O[C@@H]3COP(=O)(O)O[C@H]3[C@@H](O)[C@H](n4cnc5c(=O)[nH]c(N)nc54)O[C@@H]3COP(=O)(O)O[C@H]3[C@@H](O)[C@H](n4cnc5c(=O)[nH]c(N)nc54)O[C@@H]3COP(=O)(O)O[C@H]3[C@@H](O)[C@H](n4cnc5c(=O)[nH]c(N)nc54)O[C@@H]3COP(=O)(O)O[C@H]3[C@@H](O)[C@H](n4ccc(N)nc4=O)O[C@@H]3COP(=O)(O)O[C@H]3[C@@H](O)[C@H](n4cnc5c(=O)[nH]c(N)nc54)O[C@@H]3COP(=O)(O)O[C@H]3[C@@H](O)[C@H](n4cnc5c(=O)[nH]c(N)nc54)O[C@@H]3COP(=O)(O)O[C@H]3[C@@H](O)[C@H](n4cnc5c(=O)[nH]c(N)nc54)O[C@@H]3COP(=O)(O)O[C@H]3[C@@H](O)[C@H](n4ccc(N)nc4=O)O[C@@H]3COP(=O)(O)O[C@H]3[C@@H](O)[C@H](n4cnc5c(=O)[nH]c(N)nc54)O[C@@H]3COP(=O)(O)O[C@H]3[C@@H](O)[C@H](n4cnc5c(=O)[nH]c(N)nc54)O[C@@H]3COP(=O)(O)O[C@H]3[C@@H](O)[C@H](n4cnc5c(=O)[nH]c(N)nc54)O[C@@H]3COP(=O)(O)O)[C@@H](O)[C@H]2O)c(=O)n1`, in [7], the inhibition result is “Active”. For the same compound, the outcome in the experiment on MDA-MB-231 [8] was Active. Besides, the inhibition result in experiment [9] is “inactive”.
On to `NCCCN1C(=O)c2ccc3c4ccc5c6c(ccc(c7ccc(c2c37)C1=O)c64)C(=O)N(CCCN)C5=O`, for which the inhibition entry in experiment [1] and in experiment [2] was “inactive” in each case. Besides, the result with MDA-MB-231 [3] was inactive.
